Like-named read-outs stand apart in the source and are kept apart here.
Assays:
[1] = biological target: ALK WT (Homo sapiens, UniProt Q9UM73); assay: ALK enzymatic IC50, WT; format: biochemical
[2] = test system: Pyk2; set-up: method as in PMID 27638856; settings: less potent than the inhibition to ALK; cited from earlier work
[3] = clinical; settings: human, in vivo; for half-life: read-out: T1/2 (converted); for Tmax: read-out: Tmax
Experimental: For single-dose PK parameters, plasma samples were taken at pre-dose and 0.5 h, 1 h, 2 h, 3 h, 4 h, 6 h, 8 h, 12 h, 24 h, 48 h, 72 h, 96 h, 120 h, 144 h, and 168 h post-dose in PK lead-in phase of dose-escalation phase, and plasma samples were also taken at pre-dose and 0.5 h, 1 h, 2 h, 3 h, 4 h, 6 h, 8 h, 12 h, and 24 h post-dose in cycle 1 day 1 of dose-expansion phase. During continuous dosing, serial plasma samples were collected at pre-dose in cycle 1 day 15, pre-dose in cycle 1 day 22, pre-dose and 0.5 h, 1 h, 2 h, 3 h, 4 h, 6 h, 8 h, 12 h, and 24 h post-dose in cycle 1 day 28 for all dose cohorts. The following PK parameters were assessed: area under the concentration-time curve from the time of dosing extrapolated to infinity, based on the last observed concentration (AUCINF_obs); area under the concentration-time curve from the time of dosing to the time of last observation (AUClast); maximum concentration (Cmax); time to maximum concentration (Tmax); elimination half-life (T1/2); and mean residence time from the time of dosing to the time of the last measurable concentration (MRTlast).

[4] = 100 mg, cycle 1 day 28 of dose-expansion phase, 100 mg (n=5), mean
[5] = 100 mg, single dose, cycle 1 day 1 of dose-expansion phase, 100 mg (n=5), mean
[6] = 450 mg, cycle 1 day 28 of dose-expansion phase, 450 mg (n=10), mean
[7] = 450 mg, single dose, cycle 1 day 1 of dose-expansion phase, 450 mg (n=10), mean
[8] = 600 mg, cycle 1 day 28 of dose-expansion phase, 600 mg (n=10), mean
[9] = 600 mg, single dose, cycle 1 day 1 of dose-expansion phase, 600 mg (n=10), mean
[10] = cycle 1 day 28 of dose-escalation phase, 50 mg (n=2), mean
[11] = cycle 1 day 28 of dose-escalation phase, 100 mg (n=3), mean
[12] = cycle 1 day 28 of dose-escalation phase, 200 mg (n=3), mean
[13] = cycle 1 day 28 of dose-escalation phase, 300 mg (n=3), mean
[14] = cycle 1 day 28 of dose-escalation phase, 450 mg (n=3), mean

Sequence of ALK WT (Q9UM73 19-1620): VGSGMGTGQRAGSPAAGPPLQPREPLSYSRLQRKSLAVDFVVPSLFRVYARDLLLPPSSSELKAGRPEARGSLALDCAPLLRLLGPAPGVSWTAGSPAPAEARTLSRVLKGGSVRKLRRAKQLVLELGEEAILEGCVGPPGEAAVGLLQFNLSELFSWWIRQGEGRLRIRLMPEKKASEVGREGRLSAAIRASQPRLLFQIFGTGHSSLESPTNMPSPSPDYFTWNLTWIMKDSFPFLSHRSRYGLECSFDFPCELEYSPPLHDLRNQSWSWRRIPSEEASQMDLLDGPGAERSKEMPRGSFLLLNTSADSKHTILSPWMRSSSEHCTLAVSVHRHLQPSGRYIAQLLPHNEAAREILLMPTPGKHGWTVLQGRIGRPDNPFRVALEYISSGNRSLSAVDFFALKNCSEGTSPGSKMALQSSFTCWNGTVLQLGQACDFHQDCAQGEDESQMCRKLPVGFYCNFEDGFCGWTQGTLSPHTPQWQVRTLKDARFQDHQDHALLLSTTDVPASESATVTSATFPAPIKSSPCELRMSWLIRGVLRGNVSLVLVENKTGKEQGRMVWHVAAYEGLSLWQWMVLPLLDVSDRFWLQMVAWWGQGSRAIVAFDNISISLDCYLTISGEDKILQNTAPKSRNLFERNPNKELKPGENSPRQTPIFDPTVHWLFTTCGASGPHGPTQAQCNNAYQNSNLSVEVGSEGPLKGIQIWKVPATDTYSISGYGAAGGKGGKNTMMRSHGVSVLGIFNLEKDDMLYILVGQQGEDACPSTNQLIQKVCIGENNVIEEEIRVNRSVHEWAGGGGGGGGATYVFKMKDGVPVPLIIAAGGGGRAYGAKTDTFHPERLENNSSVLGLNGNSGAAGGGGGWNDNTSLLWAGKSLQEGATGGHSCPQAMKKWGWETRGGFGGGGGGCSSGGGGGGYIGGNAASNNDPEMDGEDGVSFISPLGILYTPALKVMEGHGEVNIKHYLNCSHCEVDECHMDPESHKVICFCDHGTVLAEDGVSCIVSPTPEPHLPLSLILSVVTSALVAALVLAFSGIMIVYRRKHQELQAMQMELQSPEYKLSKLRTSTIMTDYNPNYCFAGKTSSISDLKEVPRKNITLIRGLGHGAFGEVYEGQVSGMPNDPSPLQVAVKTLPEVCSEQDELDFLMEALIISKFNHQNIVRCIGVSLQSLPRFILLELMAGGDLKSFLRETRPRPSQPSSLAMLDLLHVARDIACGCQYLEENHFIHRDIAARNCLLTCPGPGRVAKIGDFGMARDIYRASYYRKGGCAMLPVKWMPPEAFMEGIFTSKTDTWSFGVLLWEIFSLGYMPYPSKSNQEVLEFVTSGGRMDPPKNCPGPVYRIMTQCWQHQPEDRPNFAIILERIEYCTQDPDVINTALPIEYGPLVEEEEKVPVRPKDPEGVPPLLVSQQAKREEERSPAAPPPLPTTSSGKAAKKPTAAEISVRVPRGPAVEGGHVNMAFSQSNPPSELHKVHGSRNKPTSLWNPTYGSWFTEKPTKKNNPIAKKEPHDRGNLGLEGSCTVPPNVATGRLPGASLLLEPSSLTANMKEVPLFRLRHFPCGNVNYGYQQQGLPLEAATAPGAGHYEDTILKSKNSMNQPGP

Q: For `COc1cc(N2CCC(N3CCN(C)CC3)CC2)ccc1Nc1nc2c(c(Nc3ccccc3S(=O)(=O)NC(C)C)n1)CCN2` [Conteltinib], which IC50 [1] is on record?
A: 1.5 nM

Q: And the Pyk2 inhibition [2]?
A: inhibits

Q: What about the Cmax ([3]; 100 mg, Cmax) of the same compound?
A: 123 ng/mL

Q: And the AUC(0-t) [3, 4]?
A: 1710 ng·h/mL

Q: And the MRT last [3, 4]?
A: 10.7 h

Q: What about the AUC(0-inf) ([3]; 100 mg, cycle 1 day 28 of dose-expansion phase, 100 mg (n=5), mean, read-out: AUCINF_obs) of the same compound?
A: 6460 ng·h/mL

Q: What about the half-life [3, 4] of the same compound?
A: 53.2 h

Q: What about the Tmax [3, 4] of the same compound?
A: 2 h

Q: And the AUC(0-t) [3, 5]?
A: 737 ng·h/mL

Q: And the MRT last [3, 5]?
A: 8.9 h

Q: What about the AUC(0-inf) ([3]; 100 mg, single dose, cycle 1 day 1 of dose-expansion phase, 100 mg (n=5), mean, read-out: AUCINF_obs) of the same compound?
A: 1310 ng·h/mL

Q: What about the Cmax ([3]; 100 mg, single dose, cycle 1 day 1 of dose-expansion phase, 100 mg (n=5), mean, read-out: Cmax) of the same compound?
A: 85.5 ng/mL

Q: What about the half-life [3, 5] of the same compound?
A: 26.7 h

Q: What about the Tmax [3, 5] of the same compound?
A: 2.7 h

Q: And the AUC(0-t) [3, 6]?
A: 7040 ng·h/mL

Q: And the MRT last [3, 6]?
A: 10.5 h

Q: What about the AUC(0-inf) ([3]; 450 mg, cycle 1 day 28 of dose-expansion phase, 450 mg (n=10), mean, read-out: AUCINF_obs) of the same compound?
A: 15700 ng·h/mL

Q: What about the Cmax ([3]; 450 mg, cycle 1 day 28 of dose-expansion phase, 450 mg (n=10), mean, read-out: Cmax) of the same compound?
A: 491 ng/mL

Q: And the half-life [3, 6]?
A: 26.3 h

Q: And the Tmax [3, 6]?
A: 3 h

Q: What about the AUC(0-t) [3, 7] of the same compound?
A: 3060 ng·h/mL

Q: What about the MRT last [3, 7] of the same compound?
A: 9.3 h

Q: And the AUC(0-inf) ([3]; 450 mg, single dose, cycle 1 day 1 of dose-expansion phase, 450 mg (n=10), mean, read-out: AUCINF_obs)?
A: 6340 ng·h/mL

Q: And the Cmax ([3]; 450 mg, single dose, cycle 1 day 1 of dose-expansion phase, 450 mg (n=10), mean, read-out: Cmax)?
A: 328 ng/mL

Q: And the Tmax [3, 7]?
A: 2.3 h

Q: What about the AUC(0-inf) ([3]; 600 mg, AUCINF_obs) of the same compound?
A: 7150 ng·h/mL

Q: And the AUC(0-t) [3, 8]?
A: 11900 ng·h/mL

Q: And the AUC(0-inf) ([3]; 600 mg, cycle 1 day 28 of dose-expansion phase, 600 mg (n=10), mean, read-out: AUCINF_obs)?
A: 32500 ng·h/mL

Q: What about the Cmax ([3]; 600 mg, cycle 1 day 28 of dose-expansion phase, 600 mg (n=10), mean, read-out: Cmax) of the same compound?
A: 772 ng/mL

Q: And the half-life [3, 8]?
A: 37.1 h

Q: What about the Tmax [3, 8] of the same compound?
A: 3.3 h

Q: And the AUC(0-t) [3, 9]?
A: 4610 ng·h/mL

Q: What about the MRT last [3, 9] of the same compound?
A: 9.8 h

Q: What about the Cmax ([3]; 600 mg, single dose, cycle 1 day 1 of dose-expansion phase, 600 mg (n=10), mean, read-out: Cmax) of the same compound?
A: 472 ng/mL

Q: What about the half-life [3, 9] of the same compound?
A: 16.7 h

Q: And the Tmax [3, 9]?
A: 4.6 h

Q: And the AUC(0-t) [3, 10]?
A: 683 ng·h/mL

Q: And the AUC(0-inf) ([3]; cycle 1 day 28 of dose-escalation phase, 50 mg (n=2), mean, read-out: AUCINF_obs)?
A: 16700 ng·h/mL

Q: What about the Cmax ([3]; cycle 1 day 28 of dose-escalation phase, 50 mg (n=2), mean, read-out: Cmax) of the same compound?
A: 42.7 ng/mL

Q: And the half-life [3, 10]?
A: 352 h

Q: What about the Tmax [3, 10] of the same compound?
A: 1.5 h

Q: And the AUC(0-t) [3, 11]?
A: 1480 ng·h/mL

Q: And the AUC(0-inf) ([3]; cycle 1 day 28 of dose-escalation phase, 100 mg (n=3), mean, read-out: AUCINF_obs)?
A: 6110 ng·h/mL

Q: And the Cmax ([3]; cycle 1 day 28 of dose-escalation phase, 100 mg (n=3), mean, read-out: Cmax)?
A: 106 ng/mL

Q: What about the half-life [3, 11] of the same compound?
A: 61.1 h

Q: What about the Tmax [3, 11] of the same compound?
A: 2.7 h

Q: And the AUC(0-t) [3, 12]?
A: 3570 ng·h/mL

Q: And the MRT last [3, 12]?
A: 11.2 h

Q: And the AUC(0-inf) ([3]; cycle 1 day 28 of dose-escalation phase, 200 mg (n=3), mean, read-out: AUCINF_obs)?
A: 12400 ng·h/mL

Q: What about the Cmax ([3]; cycle 1 day 28 of dose-escalation phase, 200 mg (n=3), mean, read-out: Cmax) of the same compound?
A: 259 ng/mL

Q: What about the half-life [3, 12] of the same compound?
A: 42.2 h

Q: And the Tmax [3, 12]?
A: 3 h

Q: What about the AUC(0-t) [3, 13] of the same compound?
A: 4860 ng·h/mL

Q: And the AUC(0-inf) ([3]; cycle 1 day 28 of dose-escalation phase, 300 mg (n=3), mean, read-out: AUCINF_obs)?
A: 19000 ng·h/mL

Q: And the Cmax ([3]; cycle 1 day 28 of dose-escalation phase, 300 mg (n=3), mean, read-out: Cmax)?
A: 282 ng/mL

Q: What about the half-life [3, 13] of the same compound?
A: 50.9 h

Q: And the Tmax [3, 13]?
A: 3 h

Q: What about the AUC(0-t) [3, 14] of the same compound?
A: 8050 ng·h/mL

Q: And the MRT last [3, 14]?
A: 11.6 h

Q: What about the AUC(0-inf) ([3]; cycle 1 day 28 of dose-escalation phase, 450 mg (n=3), mean, read-out: AUCINF_obs) of the same compound?
A: 34400 ng·h/mL

Q: What about the Cmax ([3]; cycle 1 day 28 of dose-escalation phase, 450 mg (n=3), mean, read-out: Cmax) of the same compound?
A: 474 ng/mL

Q: What about the half-life [3, 14] of the same compound?
A: 48.6 h

Source: paper PMC9694544, “Conteltinib (CT-707) in patients with advanced ALK-positive non-small cell lung cancer: a multicenter, open-label, first-in-human phase 1 study” (BMC Medicine, 2022)
